Experimental data taken from US20090325959A1 (priority 2008, published 2009).

Legend:
[1] = biological target: T1, IRAK4 (Homo sapiens, UniProt Q9NWZ3); experiment: Kinase panel screen (KinaseProfiler), IRAK4; type: biochemical; conditions: 10 μM ATP
T1 construct: purchased Upstate, Millipore Bioscience Division (KinaseProfiler service)
T1 sequence (Q9NWZ3 1-460): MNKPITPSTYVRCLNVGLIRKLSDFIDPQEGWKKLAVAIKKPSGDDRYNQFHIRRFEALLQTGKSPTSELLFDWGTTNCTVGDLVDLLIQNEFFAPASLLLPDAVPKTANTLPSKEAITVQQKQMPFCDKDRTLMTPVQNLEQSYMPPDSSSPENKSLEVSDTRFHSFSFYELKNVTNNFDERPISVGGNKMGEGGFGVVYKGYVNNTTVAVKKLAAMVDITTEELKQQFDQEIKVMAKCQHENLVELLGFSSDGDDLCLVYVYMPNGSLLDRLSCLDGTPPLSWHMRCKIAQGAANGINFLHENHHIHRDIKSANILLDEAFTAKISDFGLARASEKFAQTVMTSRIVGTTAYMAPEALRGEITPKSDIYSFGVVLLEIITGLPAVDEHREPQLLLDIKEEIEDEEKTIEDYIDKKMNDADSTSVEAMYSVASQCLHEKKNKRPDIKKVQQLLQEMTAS
Experimental: (§1) Compounds of Formulae I and II were examined for activity against a selected panel of kinases using the KinaseProfiler™ enzyme profiling services (Upstate, Millipore Bioscience Division). Percent kinase activity at 10 μM and 1 μM test compound and 10 μM ATP was determined against 40 wild-type recombinant human kinases according to Upstate's standard protocol: ASK1, BTK, CSK, c-RAF, GCK, GSK3β, IKKα, IKKβ, IRAK1, IRAK4, JNK1α1, JNK2α2, JNK3, ERK1, ERK2, MAPKAP-K2, MAPKAP-K3, MEK1, MKK4, MKK6, MKK7β, Mnk2, MSK1, PAK3, PDK1, PRAK, ROCK1, Rsk2, SAPK2a, SAPK2b, SAPK3, SAPK4, SRPK1, SRPK2, Syk, TAK1, TBK1, PI3-Kβ, PI3-Kγ, PI3-Kδ.

[2] = biological target: T2, ERK2 (Homo sapiens, UniProt P28482); experiment: Kinase panel screen (KinaseProfiler), ERK2; type: biochemical
T2 construct: purchased Upstate, Millipore Bioscience Division (KinaseProfiler service)
Experimental: as §1

[3] = tested on: A-10 rat thoracic aorta cells; experiment: PDGF-stimulated smooth muscle cell proliferation assay (BrdU incorporation); type: cell-based; conditions: A-10 cells, 10 ng/mL PDGF, BrdU incorporation, percent of total challenge-stimulated proliferation;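 further: cells kept in serum-free medium, BrdU allowed to incorporate for 24 h, then incorporated label detected fluorometrically with an anti-BrdU antibody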
[4] = biological target: T3, ERK1 (Homo sapiens, UniProt P27361); experiment: Kinase panel screen (KinaseProfiler), ERK1; type: biochemical
T3 construct: purchased Upstate, Millipore Bioscience Division (KinaseProfiler service)
Experimental: as §1

T3 sequence (P27361 whole entry): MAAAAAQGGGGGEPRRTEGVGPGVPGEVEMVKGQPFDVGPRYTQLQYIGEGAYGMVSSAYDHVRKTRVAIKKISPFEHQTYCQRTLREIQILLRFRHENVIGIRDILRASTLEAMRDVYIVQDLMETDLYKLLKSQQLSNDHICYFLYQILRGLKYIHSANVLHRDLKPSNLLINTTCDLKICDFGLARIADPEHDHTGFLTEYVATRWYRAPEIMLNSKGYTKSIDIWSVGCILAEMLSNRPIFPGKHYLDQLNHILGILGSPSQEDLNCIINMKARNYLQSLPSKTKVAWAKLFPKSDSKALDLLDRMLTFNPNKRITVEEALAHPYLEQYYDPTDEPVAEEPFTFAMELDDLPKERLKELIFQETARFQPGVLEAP
T2 sequence (P28482 whole entry): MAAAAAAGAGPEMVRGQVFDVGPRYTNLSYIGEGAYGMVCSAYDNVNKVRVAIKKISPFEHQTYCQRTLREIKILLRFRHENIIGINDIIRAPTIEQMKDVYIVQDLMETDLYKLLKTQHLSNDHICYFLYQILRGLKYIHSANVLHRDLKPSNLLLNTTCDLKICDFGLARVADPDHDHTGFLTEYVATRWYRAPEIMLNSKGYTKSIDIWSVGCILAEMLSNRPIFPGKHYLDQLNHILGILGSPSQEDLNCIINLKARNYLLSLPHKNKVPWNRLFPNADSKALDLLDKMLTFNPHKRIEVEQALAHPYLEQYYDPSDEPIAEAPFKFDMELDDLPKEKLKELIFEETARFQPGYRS

## NC(=O)Cn1ccc2cc(CN3CC[C@@H](Nc4cccc5cnccc45)C3)ccc21 [Compound 2.059, (R)-2-(5-((3-(isoquinolin-5-ylamino)pyrrolidin-1-yl)methyl)-1H-indol-1-yl)acetamide]
[1]; 1 μM test compound, read-out: IRAK4 Percent inhibition, 1 μM
  activity at 1 µM: 63%
[1]; 10 μM test compound, read-out: IRAK4 Percent inhibition, 10 μM
  activity at 10 µM: 22%
[2]
  ERK2 Percent inhibition, 1 μM: 56%
  ERK2 Percent inhibition, 10 μM: 12%
[2]; 1 μM, read-out: ERK2 inhibited
  inhibition at 1 µM: ~50%
[3]; 1 μM test compound
  Percent of PDGF Induced Proliferation at 1 μM Avg: 75.0%
[3]; 10 μM test compound
  Percent of PDGF Induced Proliferation at 10 μM Avg: 25.5%
[4]; 1 μM test compound, 10 μM ATP, read-out: ERK1 Percent inhibition, 1 μM
  activity at 1 µM: 37%
[4]; 1 μM, read-out: ERK1 inhibited
  inhibition at 1 µM: ~50%
[4]; 10 μM test compound, 10 μM ATP, read-out: ERK1 Percent inhibition, 10 μM
  activity at 10 µM: 4%
